Reference: US20260152491A1, “PESTICIDALLY ACTIVE HETEROCYCLIC DERIVATIVES WITH SULFUR CONTAINING SUBSTITUENTS” (SYNGENTA CROP PROTECTION AG, priority 2022, published 2026)

Columns and labels:
Assay type in all cases: in vivo
Plutella xylostella = assay: Activity against Plutella xylostella (diamond back moth), artificial diet in 24-well plates; conditions: 192 h, application rate 200 ppm, eggs, 8 days after infestation, in comparison to untreated samples, read-out: effect in at least one of the two categories (mortality or growth inhibition)
Description: Example B6: Activity Against Plutella xylostella (Diamond Back Moth)
24-well microtiter plates with artificial diet were treated with aqueous test solutions prepared from 10'000 ppm DMSO stock solutions by pipetting. After drying, Plutella eggs were pipetted through a plastic stencil onto a gel blotting paper and the plate was closed with it. The samples were assessed for mortality and growth inhibition in comparison to untreated samples 8 days after infestation.

Diabrotica balteata = assay: Activity against Diabrotica balteata (corn root worm), maize sprouts sprayed; conditions: 96 h, application rate 200 ppm, L2 larvae, 4 days after infestation, in comparison to untreated samples, read-out: effect in at least one of the two categories (mortality or growth inhibition)
Description: Example B2: Activity Against Diabrotica Balteata (Corn Root Worm)
Maize sprouts placed onto an agar layer in 24-well microtiter plates were treated with aqueous test solutions prepared from 10'000 ppm DMSO stock solutions by spraying. After drying, the plates were infested with L2 larvae (6 to 10 per well). The samples were assessed for mortality and growth inhibition in comparison to untreated samples 4 days after infestation.

Chilo suppressalis = assay: Activity against Chilo suppressalis (striped rice stemborer), artificial diet in 24-well plates; conditions: 144 h, application rate 200 ppm, L2 larvae, 6 days after infestation, in comparison to untreated samples, read-out: control (at least one of mortality, anti-feedant effect, growth inhibition)
Description: Example B1: Activity Against Chilo suppressalis (Striped Rice Stemborer)
24-well microtiter plates with artificial diet were treated with aqueous test solutions prepared from 10'000 ppm DMSO stock solutions by pipetting. After drying, the plates were infested with L2 larvae (6-8 per well). The samples were assessed for mortality, anti-feeding effect, and growth inhibition in comparison to untreated samples 6 days after infestation. Control of Chilo suppressalis by a test sample is given when at least one of the categories mortality, anti-feedant effect, and growth inhibition is higher than the untreated sample.

Spodoptera littoralis = assay: Activity against Spodoptera littoralis (Egyptian cotton leaf worm), cotton leaf discs sprayed; conditions: foliar, 72 h, application rate 200 ppm, L1 larvae, 3 days after infestation, in comparison to untreated samples, read-out: control (at least one of mortality, anti-feedant effect, growth inhibition)
Description: Example B7: Activity Against Spodoptera littoralis (Egyptian Cotton Leaf Worm)
Cotton leaf discs were placed onto agar in 24-well microtiter plates and sprayed with aqueous test solutions prepared from 10'000 ppm DMSO stock solutions. After drying the leaf discs were infested with five L1 larvae. The samples were assessed for mortality, anti-feeding effect, and growth inhibition in comparison to untreated samples 3 days after infestation. Control of Spodoptera littoralis by a test sample is given when at least one of the categories mortality, anti-feedant effect, and growth inhibition is higher than the untreated sample.

Euschistus heros = assay: Activity against Euschistus heros (neotropical brown stink bug), soybean leaves sprayed; conditions: 120 h, application rate 200 ppm, N2 nymphs, 5 days after infestation, in comparison to untreated samples, read-out: effect in at least one of the two categories (mortality or growth inhibition)
Description: Example B3: Activity Against Euschistus heros (Neotropical Brown Stink Bug)
Soybean leaves on agar in 24-well microtiter plates were sprayed with aqueous test solutions prepared from 10'000 ppm DMSO stock solutions. After drying the leaves were infested with N2 nymphs. The samples were assessed for mortality and growth inhibition in comparison to untreated samples 5 days after infestation.

Myzus persicae [1] = assay: Activity against Myzus persicae (green peach aphid), feeding/contact activity, sunflower leaf discs; conditions: foliar, 144 h, application rate 200 ppm, aphid population of mixed ages, 6 days after infestation
Description: Example B4: Activity Against Myzus persicae (Green Peach Aphid) Feeding/Contact Activity
Sunflower leaf discs were placed onto agar in a 24-well microtiter plate and sprayed with aqueous test solutions prepared from 10'000 ppm DMSO stock solutions. After drying, the leaf discs were infested with an aphid population of mixed ages. The samples were assessed for mortality 6 days after infestation.

Myzus persicae [2] = assay: Activity against Myzus persicae (green peach aphid), systemic activity, pea seedling roots in test solution; conditions: 144 h, test rate 24 ppm, aphid population of mixed ages, 6 days after placing seedlings into test solutions
Description: Example B5: Activity Against Myzus persicae (Green Peach Aphid) Systemic Activity
Roots of pea seedlings infested with an aphid population of mixed ages were placed directly into aqueous test solutions prepared from 10'000 DMSO stock solutions. The samples were assessed for mortality 6 days after placing seedlings into test solutions.

CCS(=O)(=O)c1cc(C2(C#N)CC2)cnc1-c1coc2cc(I)ccc2c1=O [P.2, 1-[5-ethylsulfonyl-6-(7-iodo-4-oxo-chromen-3-yl)-3-pyridyl]cyclopropanecarbonitrile]
≥ 80%: percent effect (mortality or growth inhibition) at 200 ppm (Plutella xylostella) | percent effect (mortality or growth inhibition) at 200 ppm (Diabrotica balteata) | percent control (mortality, anti-feedant effect or growth inhibition) at 200 ppm (Chilo suppressalis) | percent control (mortality, anti-feedant effect or growth inhibition) at 200 ppm (Spodoptera littoralis) | percent effect (mortality or growth inhibition) at 200 ppm (Euschistus heros) | mortality at 200 ppm (Myzus persicae [1])

CCS(=O)(=O)c1cc(C2(C#N)CC2)cnc1-c1coc2cc(Cl)ccc2c1=O [P.1, 1-[6-(7-chloro-4-oxo-chromen-3-yl)-5-ethylsulfonyl-3-pyridyl]-cyclopropanecarbonitrile]
≥ 80%: percent effect (mortality or growth inhibition) at 200 ppm (Plutella xylostella) | percent effect (mortality or growth inhibition) at 200 ppm (Diabrotica balteata) | percent control (mortality, anti-feedant effect or growth inhibition) at 200 ppm (Chilo suppressalis) | percent control (mortality, anti-feedant effect or growth inhibition) at 200 ppm (Spodoptera littoralis) | percent effect (mortality or growth inhibition) at 200 ppm (Euschistus heros) | mortality at 24 ppm (Myzus persicae [2]) | mortality at 200 ppm (Myzus persicae [1])

CCS(=O)(=O)c1cc(C2(C#N)CC2)cnc1-c1coc2cc(F)ccc2c1=O [P.4, 1-[5-ethylsulfonyl-6-(7-fluoro-4-oxo-chromen-3-yl)-3-pyridyl]cyclopropane-carbonitrile]
≥ 80%: percent effect (mortality or growth inhibition) at 200 ppm (Plutella xylostella) | percent effect (mortality or growth inhibition) at 200 ppm (Diabrotica balteata) | percent control (mortality, anti-feedant effect or growth inhibition) at 200 ppm (Chilo suppressalis) | percent control (mortality, anti-feedant effect or growth inhibition) at 200 ppm (Spodoptera littoralis) | percent effect (mortality or growth inhibition) at 200 ppm (Euschistus heros) | mortality at 24 ppm (Myzus persicae [2])

CCS(=O)(=O)c1cc(C2(C#N)CC2)cnc1-c1coc2cc(Br)ccc2c1=O [P.3, 1-[6-(7-bromo-4-oxo-chromen-3-yl)-5-ethylsulfonyl-3-pyridyl]-cyclopropanecarbonitrile]
≥ 80%: percent effect (mortality or growth inhibition) at 200 ppm (Plutella xylostella) | percent effect (mortality or growth inhibition) at 200 ppm (Diabrotica balteata) | percent control (mortality, anti-feedant effect or growth inhibition) at 200 ppm (Chilo suppressalis) | percent control (mortality, anti-feedant effect or growth inhibition) at 200 ppm (Spodoptera littoralis) | percent effect (mortality or growth inhibition) at 200 ppm (Euschistus heros)

CCS(=O)(=O)c1cc(C2(C#N)CC2)cnc1-c1coc2cc(-c3ccc(F)cc3)ccc2c1=O [P.6, 1-[5-ethylsulfonyl-6-[7-(4-fluorophenyl)-4-oxo-chromen-3-yl]-3-pyridyl]cyclopropane-carbonitrile]
≥ 80%: percent effect (mortality or growth inhibition) at 200 ppm (Plutella xylostella) | percent effect (mortality or growth inhibition) at 200 ppm (Diabrotica balteata) | percent control (mortality, anti-feedant effect or growth inhibition) at 200 ppm (Spodoptera littoralis)

CCS(=O)(=O)c1cc(C2(C#N)CC2)cnc1-c1coc2cc(-c3cc(F)cc(F)c3)ccc2c1=O [P.7, 1-[6-[7-(3,5-difluorophenyl)-4-oxo-chromen-3-yl]-5-ethylsulfonyl-3-pyridyl]-cyclopropanecarbonitrile]
≥ 80%: percent effect (mortality or growth inhibition) at 200 ppm (Plutella xylostella) | percent effect (mortality or growth inhibition) at 200 ppm (Diabrotica balteata) | percent control (mortality, anti-feedant effect or growth inhibition) at 200 ppm (Chilo suppressalis) | percent control (mortality, anti-feedant effect or growth inhibition) at 200 ppm (Spodoptera littoralis) | percent effect (mortality or growth inhibition) at 200 ppm (Euschistus heros)

CCS(=O)(=O)c1cc(C2(C#N)CC2)cnc1-c1coc2cc(C3CC3)ccc2c1=O [P.5, 1-[6-(7-cyclopropyl-4-oxo-chromen-3-yl)-5-ethylsulfonyl-3-pyridyl]-cyclopropane-carbonitrile]
≥ 80%: percent effect (mortality or growth inhibition) at 200 ppm (Plutella xylostella) | percent effect (mortality or growth inhibition) at 200 ppm (Diabrotica balteata) | percent control (mortality, anti-feedant effect or growth inhibition) at 200 ppm (Chilo suppressalis) | percent control (mortality, anti-feedant effect or growth inhibition) at 200 ppm (Spodoptera littoralis) | percent effect (mortality or growth inhibition) at 200 ppm (Euschistus heros)
